Measurements as given in paper PMC3565387 (Bioorganic & medicinal chemistry, 2012).

Tests used:
human neutrophils = assay: Ca2+ mobilization in human neutrophils; type: cell-based; conditions: % of response induced by 5 nM fMLF
FPR1 [1] = biological target: T1, FPR1 (Homo sapiens, UniProt P21462); assay: Ca2+ mobilization in HL-60 cells transfected with FPR1; type: cell-based; conditions: HL-60-FPR1 cells; % of response induced by 5 nM fMLF
T1 sequence (P21462 1-350): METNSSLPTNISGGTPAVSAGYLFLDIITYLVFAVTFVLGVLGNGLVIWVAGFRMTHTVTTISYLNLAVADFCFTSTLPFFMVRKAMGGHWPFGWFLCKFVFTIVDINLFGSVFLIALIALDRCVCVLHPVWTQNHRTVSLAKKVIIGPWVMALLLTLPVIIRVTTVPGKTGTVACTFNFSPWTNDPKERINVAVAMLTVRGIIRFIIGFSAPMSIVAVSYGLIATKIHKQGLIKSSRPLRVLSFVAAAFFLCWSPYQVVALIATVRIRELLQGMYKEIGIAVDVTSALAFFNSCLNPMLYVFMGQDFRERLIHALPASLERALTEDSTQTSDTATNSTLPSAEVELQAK

FPR2 [2] = biological target: T2, FPR2 (Homo sapiens, UniProt P25090); assay: Ca2+ mobilization in HL-60 cells transfected with FPR2; type: cell-based; conditions: HL-60-FPR2 cells; % of response induced by 5 nM WKYMVm
T2 sequence (P25090 1-351): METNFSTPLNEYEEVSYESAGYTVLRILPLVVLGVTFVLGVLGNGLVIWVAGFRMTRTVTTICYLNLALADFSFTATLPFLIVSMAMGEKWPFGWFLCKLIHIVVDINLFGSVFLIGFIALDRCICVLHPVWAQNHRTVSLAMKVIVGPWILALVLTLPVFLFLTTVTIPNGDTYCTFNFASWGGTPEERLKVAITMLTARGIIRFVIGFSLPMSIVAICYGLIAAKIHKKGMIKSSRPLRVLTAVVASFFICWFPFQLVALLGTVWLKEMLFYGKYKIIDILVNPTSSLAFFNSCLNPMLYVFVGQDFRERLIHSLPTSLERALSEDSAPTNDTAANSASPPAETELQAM

FPR2/ALX = conditions: read-out: EC50 at FPR2/ALX; endogenous ligand; cited from earlier work
FPR1 [3] = biological target: T1, FPR1; assay: PathHunter β-arrestin recruitment in CHO-K1 FPR1 cells; type: cell-based; conditions: % of response induced by 5 nM WKYMVm
FPR2 [4] = biological target: T2, FPR2; assay: PathHunter β-arrestin recruitment in CHO-K1 FPR2 cells; type: cell-based

| Structure (SMILES) | Ca2+ mobilization hPMN efficacy (human neutrophils) [%] | Ca2+ mobilization FPR1 efficacy (FPR1 [1]) [%] | Ca2+ mobilization FPR2 efficacy (FPR2 [2]) [%] | also measured |
| --- | --- | --- | --- | --- |
| CCC(C(=O)Nc1ccc(Br)cc1)n1nc(C)cc(Cc2cccc(OC)c2)c1=O (racemic) [(±)-5b, (±)-N-(4-Bromophenyl)-2-[5-(3-methoxybenzyl)-3-methyl-6-oxopyridazin-1(6H)-yl]butanamide] | 145 | 95 | 95 | – |
| CCCCC[C@H](O)/C=C/C=C\C=C\C=C\[C@@H](O)[C@@H](O)CCCC(=O)O [LXA4, lipoxin A4] | – | – | – | EC50 (FPR2/ALX): 1 nM |
| COc1cccc(Cc2cc(C)nn([C@H](C)C(=O)Nc3ccc(Br)cc3)c2=O)c1 [R-(−)-5a, R-(−)-N-(4-Bromophenyl)-2-[5-(3-methoxybenzyl)-3-methyl-6-oxopyridazin-1(6H)-yl]propanamide] | 110 | – | – | – |
| CCC[C@H](C(=O)Nc1ccc(Br)cc1)n1nc(C)cc(Cc2cccc(OC)c2)c1=O [R-(−)-5c, R-(−)-N-(4-Bromophenyl)-2-[5-(3-methoxybenzyl)-3-methyl-6-oxopyridazin-1(6H)-yl]pentanamide] | 145 | 85 | 120 | β-Arrestin recruitment FPR1 efficacy (FPR1 [3]): 120%; β-Arrestin recruitment FPR2 efficacy (FPR2 [4]; CHO-K1 FPR2 cells, % of response induced by 5 nM WKYMVm): 100% |
| COc1cccc(Cc2cc(C)nn([C@@H](C)C(=O)Nc3ccc(Br)cc3)c2=O)c1 [S-(+)-5a, S-(+)-N-(4-Bromophenyl)-2-[5-(3-methoxybenzyl)-3-methyl-6-oxopyridazin-1(6H)-yl]propanamide] | 65 | – | – | – |
| CSCC[C@H](NC=O)C(=O)N[C@@H](CC(C)C)C(=O)N[C@@H](Cc1ccccc1)C(=O)O [fMLF, N-formyl-methionine-leucine-phenylalanine, reference compound] | – | – | – | β-Arrestin recruitment FPR2 (in words) (FPR2 [4]; FPR2 CHO-K1 cells): no recruitment |
